Experimental data: PubChem BioAssay AID2060512 (Molecular Pharmacology Branch, DTP, NCI, 2025)

Tested on: 186277-243-T-J2-PDC complex spheroid viability
Experiment: Anticancer human tumor 186277-243-T-J2-PDC patient-derived colon adenocarcinoma cell line growth inhibition [GQUAD]
Conditions: for IC50: curve of first compound; for viability, T/C: stronger effect = lower value
Source text: DNA G-quadruplex Stabilizer Agents in Combinations in Complex Spheroids
A high-throughput screen of multi-cell type tumor spheroids was designed to identify active combinations of DNA G-quadruplex stabilizer agents and targeted small molecules. Complex spheroids include a stromal component modeled by human endothelial cells (HUVEC) and fibroblasts modeled by human mesenchymal stem cells (MSCs). The concentration ranges selected for each drug and investigational agent were based upon clinically achievable concentrations if the clinical Cmax of the agent was known.
Compounds. The drugs and investigational agents: pidnarulex (CX-5461; NSC782164), APTO-253 (NSC789042), BRACO-19 (NSC847499), peposertib (NSC802822), ceralasertib (NSC780249), elimusertib (NSC800525), camonsertib (NSC841442), AZD-1390 (NSC803789), olaparib (NSC753686), talazoparib (NSC767125), ART-558 (NSC835418), sotorasib (NSC818433), MRTX-1133 (NSC836407), SN-38 (NSC673596), topotecan (NSC609699), etoposide (NSC141540), doxorubicin (NSC123127), gemcitabine (NSC613327), 5-fluorouracil (NSC19893), paclitaxel (NSC125973), vemurafenib (NSC761431), panobinostat (NSC761190), R-306465 (JNJ-16241199; NSC773264), adavosertib (NSC754352), TP-3654 (NSC805149), carboplatin (NSC241240), KSQ-4279 (NSC840948), and staurosporine (NSC755774) were obtained from the National Cancer Institute (NCI) Developmental Therapeutics Program Chemical Repository (34). The FDA-approved anticancer drug set is available from the NCI Developmental Therapeutics Program. […] The stock solutions were prepared in dimethyl sulfoxide (DMSO, Sigma-Aldrich, St. Louis, MO, cat. D2650) at 800-fold the tested concentration and stored at -70 degrees C prior to their use. All drugs and investigational agents were tested over a range starting from a high concentration at or near the clinical Cmax and decreasing in half-log increments. If the clinical Cmax for an agent had not been determined, the highest concentration tested was 10 microM.
2.3 Cell Culture. All cells were maintained in an incubator at 37 degrees C and 5% CO2 with 95% humidity. The PDC lines were cultured according to standard operating procedures established by the NCI PDMR. All PDCs were thawed and cultured in Matrigel-coated flasks prepared with a working solution of 1X Ham's F-12 nutrient mix, without supplementation (Invitrogen, cat. 11765054), 100 U/mL penicillin-streptomycin (Invitrogen, cat. 15140122), and 2.5% Matrigel (Corning Inc., cat. 354248) for the first three passages. The 857933-349-R-J2-PDC line was cultured in 6C/Colon 1B media, which includes advanced DMEM/F-12 (Thermo Fisher Scientific, cat. 12634028), 10 mM HEPES (Thermo Fisher Scientific, cat. 15630080), 1X GlutaMAX supplement (Thermo Fisher Scientific, cat. 35050061), 0.1 mg/mL primocin (InvivoGen, cat. ant-pm-2), 10% defined fetal bovine serum, heat inactivated (HyClone Laboratories Inc., cat. SH30070.03HI), 50% L-WRN conditioned media (ATCC, cat. CRL-3276), 1.25 mM N-Acetyl-L-cysteine (Sigma-Aldrich, cat. A9165), 10 mM nicotinamide (Sigma-Aldrich, cat. N0636), 1X B-27 supplement (Thermo Fisher Scientific, cat. 17504044), 1X N-2 supplement (Thermo Fisher Scientific, cat. 17502048), 10 microM Y-27632 dihydrochloride (Tocris Bioscience, cat. 1254), and 50 ng/mL human EGF recombinant protein (Thermo Fisher Scientific, cat. PHG0311). The 485176-168-R4-J1-PDC line was cultured in Panc media, which includes all 6C/Colon 1B media components plus 100 ng/mL human FGF-10 (Thermo Fisher Scientific, cat. 100-26), 500 nM SB-431542 (Selleckchem, cat. S1067), and gastrin (Tocris, cat. 3006).
[…]

[1] = second compound 0.0316 µM, first compound 0.0316 µM
[2] = second compound 0.0316 µM, first compound 0.1 µM
[3] = second compound 0.0316 µM, first compound 0.316 µM
[4] = second compound 0.0316 µM, first compound 1 µM
[5] = second compound 0.0316 µM, first compound 3.16 µM
[6] = second compound 0.0316 µM, first compound 10 µM
[7] = second compound 0.1 µM, first compound 0.0316 µM
[8] = second compound 0.1 µM, first compound 0.1 µM
[9] = second compound 0.1 µM, first compound 0.316 µM
[10] = second compound 0.1 µM, first compound 1 µM
[11] = second compound 0.1 µM, first compound 3.16 µM
[12] = second compound 0.1 µM, first compound 10 µM
[13] = second compound 0.316 µM, first compound 0.0316 µM
[14] = second compound 0.316 µM, first compound 0.1 µM
[15] = second compound 0.316 µM, first compound 0.316 µM
[16] = second compound 0.316 µM, first compound 1 µM
[17] = second compound 0.316 µM, first compound 3.16 µM
[18] = second compound 0.316 µM, first compound 10 µM
[19] = second compound 1 µM, first compound 0.0316 µM
[20] = second compound 1 µM, first compound 0.1 µM
[21] = second compound 1 µM, first compound 0.316 µM
[22] = second compound 1 µM, first compound 1 µM
[23] = second compound 1 µM, first compound 3.16 µM
[24] = second compound 1 µM, first compound 10 µM
[25] = second compound 3.16 µM, first compound 0.0316 µM
[26] = second compound 3.16 µM, first compound 0.1 µM
[27] = second compound 3.16 µM, first compound 0.316 µM
[28] = second compound 3.16 µM, first compound 1 µM
[29] = second compound 3.16 µM, first compound 3.16 µM
[30] = second compound 3.16 µM, first compound 10 µM
[31] = second compound 10 µM, first compound 0.0316 µM
[32] = second compound 10 µM, first compound 0.1 µM
[33] = second compound 10 µM, first compound 0.316 µM
[34] = second compound 10 µM, first compound 1 µM
[35] = second compound 10 µM, first compound 3.16 µM
[36] = second compound 10 µM, first compound 10 µM
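Further: spheroids exposed to drugs for 7 days.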
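Wherever viability, T/C is given: 100% = DMSO vehicle control viability.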

COc1cc(C2c3cc4c(cc3C(OC3OC5COC(C)OC5C(O)C3O)C3COC(=O)C23)OCO4)cc(OC)c1O (centres undefined) + Cc1[nH]c2ccc(F)cc2c1-c1nc2c3cccnc3c3ncccc3c2[nH]1
IC50 (second compound 0.0316 µM): 3720 nM | IC50 (second compound 0.1 µM): 2420 nM | IC50 (second compound 0.316 µM): 3480 nM | IC50 (second compound 1 µM): 3340 nM | IC50 (second compound 3.16 µM): 2580 nM | IC50 (second compound 10 µM): 2760 nM | viability, T/C [1]: 104% | viability, T/C [2]: 101% | viability, T/C [3]: 101% | viability, T/C [4]: 62.2% | viability, T/C [5]: 61.3% | viability, T/C [6]: 25% | viability, T/C [7]: 92.1% | viability, T/C [8]: 92.4% | viability, T/C [9]: 76.8% | viability, T/C [10]: 62% | viability, T/C [11]: 47.9% | viability, T/C [12]: 27.2% | viability, T/C [13]: 94.6% | viability, T/C [14]: 90.2% | viability, T/C [15]: 83.4% | viability, T/C [16]: 69.3% | viability, T/C [17]: 52.9% | viability, T/C [18]: 26.2% | viability, T/C [19]: 104% | viability, T/C [20]: 87.1% | viability, T/C [21]: 85.6% | viability, T/C [22]: 66.9% | viability, T/C [23]: 53.5% | viability, T/C [24]: 27.4% | viability, T/C [25]: 96.6% | viability, T/C [26]: 101% | viability, T/C [27]: 110% | viability, T/C [28]: 69% | viability, T/C [29]: 49.8% | viability, T/C [30]: 25.5% | viability, T/C [31]: 103% | viability, T/C [32]: 98% | viability, T/C [33]: 94.1% | viability, T/C [34]: 70.6% | viability, T/C [35]: 48.1% | viability, T/C [36]: 30.5%

CC(C)(O)C1CCC(Nc2ccc3ncc(-c4cccc(C(F)(F)F)c4)n3n2)CC1 (centres undefined) + Cc1[nH]c2ccc(F)cc2c1-c1nc2c3cccnc3c3ncccc3c2[nH]1
IC50 (second compound 0.0316 µM): 2550 nM | IC50 (second compound 0.1 µM): 3840 nM | IC50 (second compound 0.316 µM): 2870 nM | IC50 (second compound 1 µM): 2750 nM | IC50 (second compound 3.16 µM): 2450 nM | IC50 (second compound 10 µM): 2190 nM | viability, T/C [1]: 105% | viability, T/C [2]: 87.1% | viability, T/C [3]: 86.5% | viability, T/C [4]: 80.9% | viability, T/C [5]: 42.2% | viability, T/C [6]: 29.2% | viability, T/C [7]: 100% | viability, T/C [8]: 103% | viability, T/C [9]: 78.8% | viability, T/C [10]: 83.3% | viability, T/C [11]: 49.8% | viability, T/C [12]: 32.1% | viability, T/C [13]: 90% | viability, T/C [14]: 110% | viability, T/C [15]: 97.3% | viability, T/C [16]: 91.8% | viability, T/C [17]: 46.1% | viability, T/C [18]: 32.6% | viability, T/C [19]: 98.8% | viability, T/C [20]: 97% | viability, T/C [21]: 90.5% | viability, T/C [22]: 107% | viability, T/C [23]: 41.7% | viability, T/C [24]: 45% | viability, T/C [25]: 95.6% | viability, T/C [26]: 115% | viability, T/C [27]: 107% | viability, T/C [28]: 90.9% | viability, T/C [29]: 37.9% | viability, T/C [30]: 38.6% | viability, T/C [31]: 91% | viability, T/C [32]: 111% | viability, T/C [33]: 113% | viability, T/C [34]: 87.4% | viability, T/C [35]: 29.4% | viability, T/C [36]: 35.3%
